Patent US20240287138A1, “CYCLIC PEPTIDES FOR INHIBITING TNF RECEPTOR 1 ACTIVITY” (Merck Sharp & Dohme LLC, priority 2023, published 2024)
Numbered stars: 1 amine (or outer) side, 2 acyl side, 3 side chain; on linkers, the order of the positions; unused ones are H or OH. Bridge positions count the residues as written; N and C are the ends. Square brackets hold non-standard residues; d marks the D form. Peptide text beside a SMILES is read from it. * marks the point of attachment. Trp(βS-Me,7-OMe) = COc1cccc2c([C@H](C)[C@H](N)C(=O)O)c[nH]c12; Trp(1-CH2COOH) = N[C@@H](Cc1cn(CC(=O)O)c2ccccc12)C(=O)O; Phe(4-SO2NH2) = N[C@@H](Cc1ccc(S(N)(=O)=O)cc1)C(=O)O; dPro(trans-4-NMe2) = CN(C)[C@@H]1CN[C@@H](C(=O)O)C1; Trp(7-CN) = N#Cc1cccc2c(C[C@H](N)C(=O)O)c[nH]c12; Trp(7-Cl) = N[C@@H](Cc1c[nH]c2c(Cl)cccc12)C(=O)O; Phe(4-CONH2) = NC(=O)c1ccc(C[C@H](N)C(=O)O)cc1; Phe(4-COOH) = N[C@@H](Cc1ccc(C(=O)O)cc1)C(=O)O; 4Pal(3S-Me) = C[C@@H](c1ccncc1)[C@H](N)C(=O)O; Trp(7-aza) = N[C@@H](Cc1c[nH]c2ncccc12)C(=O)O; Phe(4-CH2NH2) = NCc1ccc(C[C@H](N)C(=O)O)cc1; Pip(5R-OH) = O=C(O)[C@@H]1CC[C@@H](O)CN1; X1 = O=C([C@@H]1CC[C@H](N[*:1])C1)[*:2]; Nle(5,5-F2) = CC(F)(F)CC[C@H](N)C(=O)O; NMeT = CN[C@H](C(=O)O)[C@@H](C)O; Pip(4-aza) = O=C(O)[C@@H]1CNCCN1; 4Pal = N[C@@H](Cc1ccncc1)C(=O)O; NMeE = CN[C@@H](CCC(=O)O)C(=O)O; dHyp = O=C(O)[C@H]1C[C@H](O)CN1; Ahp(2) = CCCCC[C@H](N)C(=O)O; αMeS = C[C@](N)(CO)C(=O)O; Carboxymethyl = O=C(O)C*; Nle = CCCC[C@H](N)C(=O)O; Sar = CNCC(=O)O

Assays:
[1] = molecular target: T1, human TNFR1 extracellular domain (ECD) protein (Homo sapiens, UniProt P19438); test: SPR binding affinity to captured human TNFR1 ECD
T1 construct: HRV 3C protease cleavage site (C); 6His (C, cleaved yes); made in house; host or cells: Sf21 insect cells (baculovirus), secreted
T1 sequence (P19438 30-211): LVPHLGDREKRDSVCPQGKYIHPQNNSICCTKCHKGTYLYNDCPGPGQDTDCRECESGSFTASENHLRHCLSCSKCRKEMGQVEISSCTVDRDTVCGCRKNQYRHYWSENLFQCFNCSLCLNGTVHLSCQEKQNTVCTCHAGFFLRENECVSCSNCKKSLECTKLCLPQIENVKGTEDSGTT
How it was run: (§1)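 Peptide binding kinetics read by SPR in HEPES pH 7.4 running buffer with 2% DMSO, with TNFR2 ECD tested in parallel for off-target binding. Receptor ECDs, insect-cell expressed and biotinylated at C-terminal avi-tag, were captured via streptavidin. KA derived from association and dissociation rate constants.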

human TNFR2 ECD protein = molecular target: T2, human TNFR2 ECD protein (Homo sapiens, UniProt P20333); test: SPR off-target binding (selectivity) to human TNFR2 ECD
T2 construct: HRV 3C protease cleavage site (C); 6His (C, cleaved yes); made in house; host or cells: Sf21 insect cells (baculovirus), secreted
T2 sequence (P20333 23-257): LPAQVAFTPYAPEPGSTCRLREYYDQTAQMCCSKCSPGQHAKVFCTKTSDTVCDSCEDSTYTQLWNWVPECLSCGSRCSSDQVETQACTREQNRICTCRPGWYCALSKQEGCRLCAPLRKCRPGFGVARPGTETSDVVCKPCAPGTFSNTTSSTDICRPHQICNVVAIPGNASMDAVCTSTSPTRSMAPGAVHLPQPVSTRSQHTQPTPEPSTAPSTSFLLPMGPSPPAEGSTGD
How it was run: as §1

Structure (SMILES)	Kd [1]	Kd (human TNFR2 ECD protein)
CCCC[C@@H]1NC(=O)[C@@H]2CC[C@@H](C2)NC(=O)[C@H]([C@@H](C)c2c[nH]c3c(OC)cccc23)NC(=O)CN(C)C(=O)[C@H](Cc2ccc(O)cc2)NC(=O)[C@H](Cc2ccc(OCC(=O)O)cc2)NC(=O)[C@](C)(CO)NC(=O)[C@H](Cc2c[nH]c3c(Cl)cccc23)NC(=O)[C@H](Cc2ccncc2)NC(=O)[C@H](CC(N)=O)NC(=O)[C@H](CCC(=O)O)N(C)C(=O)[C@H](Cc2c[nH]c3ccccc23)NC(=O)[C@@H]2CNCCN2C(=O)[C@H](Cc2ccncc2)NC1=O [SEQ ID NO. 80] (cyclo([4Pal][Trp(7-Cl)][αMeS]Y(Carboxymethyl)Y[Sar][Trp(βS-Me,7-OMe)][X1][Nle][4Pal][Pip(4-aza)]W[NMeE]N))	0.33 nM	> 1000 nM
CCCC[C@@H]1NC(=O)CSC[C@@H](C(N)=O)NC(=O)[C@H]([C@@H](C)c2c[nH]c3c(OC)cccc23)NC(=O)CN(C)C(=O)[C@H](Cc2ccc(O)cc2)NC(=O)[C@H](Cc2ccc(C(=O)O)cc2)NC(=O)[C@](C)(CO)NC(=O)[C@H](Cc2c[nH]c3c(Cl)cccc23)NC(=O)[C@H](Cc2ccncc2)NC(=O)[C@H](CC(N)=O)NC(=O)[C@H](CCC(=O)O)N(C)C(=O)[C@H](Cc2c[nH]c3ncccc23)NC(=O)[C@H]([C@@H](C)O)N(C)C(=O)[C@H](Cc2ccncc2)NC1=O [SEQ ID NO. 29] ({CH2CO}-[Nle][4Pal][NMeT][Trp(7-aza)][NMeE]N[4Pal][Trp(7-Cl)][αMeS][Phe(4-COOH)]Y[Sar][Trp(βS-Me,7-OMe)]C-NH2; thioether N-14)	0.28 nM	> 1000 nM
CCCC[C@@H]1NC(=O)[C@@H]2CC[C@@H](C2)NC(=O)[C@H]([C@@H](C)c2c[nH]c3c(OC)cccc23)NC(=O)CN(C)C(=O)[C@H](Cc2ccc(CN)cc2)NC(=O)[C@H](Cc2ccc(C(=O)O)cc2)NC(=O)[C@](C)(CO)NC(=O)[C@H](Cc2c[nH]c3c(Cl)cccc23)NC(=O)[C@H](Cc2ccncc2)NC(=O)[C@H](CC(N)=O)NC(=O)[C@H](CCC(=O)O)N(C)C(=O)[C@H](Cc2c[nH]c3ccccc23)NC(=O)[C@@H]2CNCCN2C(=O)[C@H](Cc2ccncc2)NC1=O [SEQ ID NO. 269] (cyclo([4Pal][Trp(7-Cl)][αMeS][Phe(4-COOH)][Phe(4-CH2NH2)][Sar][Trp(βS-Me,7-OMe)][X1][Nle][4Pal][Pip(4-aza)]W[NMeE]N))	0.1 nM	> 1000 nM
COc1cccc2c([C@H](C)[C@@H]3NC(=O)CN(C)C(=O)[C@H](Cc4ccc(O)cc4)NC(=O)[C@H](Cc4ccc(C(=O)O)cc4)NC(=O)[C@](C)(CO)NC(=O)[C@H](Cc4c[nH]c5c(Cl)cccc45)NC(=O)[C@H](Cc4ccncc4)NC(=O)[C@H](CC(N)=O)NC(=O)[C@H](CCC(=O)O)N(C)C(=O)[C@H](Cc4c[nH]c5ccccc45)NC(=O)[C@@H]4CNCCN4C(=O)[C@H](Cc4ccncc4)NC(=O)[C@H](CCC(C)(F)F)NC(=O)[C@@H]4CC[C@@H](C4)NC3=O)c[nH]c12 [SEQ ID NO. 275] (cyclo([4Pal][Trp(7-Cl)][αMeS][Phe(4-COOH)]Y[Sar][Trp(βS-Me,7-OMe)][X1][Nle(5,5-F2)][4Pal][Pip(4-aza)]W[NMeE]N))	0.3 nM	> 1000 nM
CCCC[C@@H]1NC(=O)[C@@H]2CC[C@@H](C2)NC(=O)[C@H]([C@@H](C)c2c[nH]c3c(OC)cccc23)NC(=O)CN(C)C(=O)[C@H](Cc2ccc(C(N)=O)cc2)NC(=O)[C@H](Cc2ccc(S(N)(=O)=O)cc2)NC(=O)[C@](C)(CO)NC(=O)[C@H](Cc2c[nH]c3c(C#N)cccc23)NC(=O)[C@H](Cc2ccc(C(=O)O)cc2)NC(=O)[C@H](CC(N)=O)NC(=O)[C@H]2C[C@H](N(C)C)CN2C(=O)[C@H](Cc2cn(CC(=O)O)c3ccccc23)NC(=O)[C@@H]2CC[C@@H](O)CN2C(=O)[C@H](Cc2ccncc2)NC1=O [SEQ ID NO. 2] (cyclo([4Pal][Pip(5R-OH)][Trp(1-CH2COOH)][dPro(trans-4-NMe2)]N[Phe(4-COOH)][Trp(7-CN)][αMeS][Phe(4-SO2NH2)][Phe(4-CONH2)][Sar][Trp(βS-Me,7-OMe)][X1][Nle]))	0.07 nM	> 1000 nM
CCCCC[C@@H]1NC(=O)[C@@H]2CC[C@@H](C2)NC(=O)[C@H]([C@@H](C)c2c[nH]c3c(OC)cccc23)NC(=O)CN(C)C(=O)[C@H](Cc2ccc(C(N)=O)cc2)NC(=O)[C@H](Cc2ccc(C(N)=O)cc2)NC(=O)[C@](C)(CO)NC(=O)[C@H](Cc2c[nH]c3c(C#N)cccc23)NC(=O)[C@H](Cc2ccc(C(=O)O)cc2)NC(=O)[C@H](CC(N)=O)NC(=O)[C@H]2C[C@H](O)CN2C(=O)[C@H](Cc2c[nH]c3ccccc23)NC(=O)[C@H](CCC(N)=O)NC(=O)[C@H]([C@@H](C)c2ccncc2)NC1=O [SEQ ID NO. 70] (cyclo([Ahp(2)][4Pal(3S-Me)]QW[dHyp]N[Phe(4-COOH)][Trp(7-CN)][αMeS][Phe(4-CONH2)][Phe(4-CONH2)][Sar][Trp(βS-Me,7-OMe)][X1]))	0.07 nM	> 1000 nM
